In patent US20230374035A1, “RAS INHIBITORS” (Revolution Medicines, Inc., priority 2019, published 2023):
Where two headings read alike, the source gives them in different places.

Experiments:
[1] = molecular target: KRAS G12C (Homo sapiens, UniProt P01116+P62937, G12C); assay: Disruption of BRAF RBD interaction with K-Ras (FRET / MOA assay); format: biochemical
Experimental: (§1) Compound is present in plate wells as a 10-point 3-fold dilution series starting at a final concentration of 30 μM. […] Compounds that facilitate disruption of a Ras:RAF complex are identified as those eliciting a decrease in the TR-FRET ratio relative to DMSO control wells.
(§2) Note—The following protocol describes a procedure for monitoring disruption of K-Ras G12C (GMP-PNP) binding to BRAF^RBD by a compound of the invention. This protocol may also be executed substituting other Ras proteins or nucleotides.
(§3) The purpose of this biochemical assay was to measure the ability of test compounds to facilitate ternary complex formation between a nucleotide-loaded K-Ras isoform and Cyclophilin A; the resulting ternary complex disrupts binding to a BRAF^RBD construct, inhibiting K-Ras signaling through a RAF effector. Data is reported as IC50 values.
(§4) Compound was present in plate wells as a 10-point 3-fold dilution series starting at a final concentration of 30 μM. […] Compounds that facilitate disruption of a K-Ras:RAF complex were identified as those eliciting a decrease in the TR-FRET ratio relative to DMSO control wells.

[2] = molecular target: KRAS Q61H (Homo sapiens, UniProt P01116+P62937, Q61H); assay: as above; format: biochemical
Chain of KRAS Q61H (P01116 1-188 isoform P01116-2 Q61H): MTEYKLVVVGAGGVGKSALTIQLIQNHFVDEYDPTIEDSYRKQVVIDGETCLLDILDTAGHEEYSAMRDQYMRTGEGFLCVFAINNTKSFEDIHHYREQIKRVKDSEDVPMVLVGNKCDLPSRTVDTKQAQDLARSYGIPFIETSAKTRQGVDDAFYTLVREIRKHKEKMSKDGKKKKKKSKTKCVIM
Chain of KRAS Q61H (P62937 whole entry): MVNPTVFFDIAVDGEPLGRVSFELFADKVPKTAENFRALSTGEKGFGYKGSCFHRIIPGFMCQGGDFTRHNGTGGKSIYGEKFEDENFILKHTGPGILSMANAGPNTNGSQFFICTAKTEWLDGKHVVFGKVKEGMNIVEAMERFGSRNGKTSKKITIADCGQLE
Experimental: as §1, §2, §3, §4

[3] = molecular target: NRAS Q61R (Homo sapiens, UniProt P01111+P62937, Q61R); assay: Disruption of BRAF RBD interaction with Ras (FRET / MOA assay); format: biochemical
Chain of NRAS Q61R (P01111 whole entry Q61R): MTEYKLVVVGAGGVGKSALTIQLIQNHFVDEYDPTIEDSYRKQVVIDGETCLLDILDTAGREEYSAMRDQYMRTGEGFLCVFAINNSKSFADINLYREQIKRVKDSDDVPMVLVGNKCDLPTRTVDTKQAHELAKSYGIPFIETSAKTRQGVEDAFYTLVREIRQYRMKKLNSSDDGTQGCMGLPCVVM
Chain of NRAS Q61R (P62937 whole entry): as the sequence (P62937 whole entry) above
Experimental: as §1, §2, §3, §4

[4] = molecular target: NRAS Q61K (Homo sapiens, UniProt P01111+P62937, Q61K); assay: as above; format: biochemical
Chain of NRAS Q61K (P01111 whole entry Q61K): as the sequence (P01111 whole entry Q61R) above, with R61K counted along it
Chain of NRAS Q61K (P62937 whole entry): as the sequence (P62937 whole entry) above
Experimental: as §1, §2, §3, §4

[5] = molecular target: NRAS WT (Homo sapiens, UniProt P01111+P62937); assay: as above; format: biochemical
Chain of NRAS WT (P01111 whole entry): as the sequence (P01111 whole entry Q61R) above, with R61Q counted along it
Chain of NRAS WT (P62937 whole entry): as the sequence (P62937 whole entry) above
Experimental: as §1, §2, §3, §4

[6] = from CCn1c(-c2cccnc2[C@H](C)OC)c(CC(C)(C)CO)c2cc(-c3csc(C[C@H](NC(=O)OC(C)(C)C)C(=O)N4CCC[C@@H](C(=O)O)N4)n3)ccc21; ester bond; EDCl/HOBt/DIPEA; DCM; 12.65 mM; 25.0 °C; 16.0 h
[7] = system: NCI-H358 (K-Ras G12C); assay: CellTiter-Glo Cell Viability Assay; format: cell-based; conditions: Homo sapiens, NCI-H358, 120 h; H358, 5-day treatment
Experimental: Determination of Cell Viability in RAS Mutant Cancer Cell Lines
Protocol: CellTiter-Glo® Cell Viability Assay
Note—The following protocol describes a procedure for monitoring cell viability of K-Ras mutant cancer cell lines in response to a compound of the invention. Other RAS isoforms may be employed, though the number of cells to be seeded will vary based on cell line used.
Test compounds (132.5 nl) were directly dispensed into the assay plates containing cells. […] On day 5, assay plates and their contents were equilibrated to room temperature for approximately 30 minutes. […] Luminescence was measured using the PerkinElmer Enspire. Data were normalized by the following: (Sample signal/Avg. DMSO)*100. The data were fit using a four-parameter logistic fit.

[8] = read-out: KRAS G12C FRET data IC50
[9] = read-out: KRAS Q61H FRET data IC50
[10] = read-out: NRAS Q61R FRET data IC50
[11] = read-out: NRAS Q61K FRET data IC50
[12] = read-out: NRAS WT FRET data IC50

Chain of KRAS G12C (P01116 1-188 isoform P01116-2 G12C): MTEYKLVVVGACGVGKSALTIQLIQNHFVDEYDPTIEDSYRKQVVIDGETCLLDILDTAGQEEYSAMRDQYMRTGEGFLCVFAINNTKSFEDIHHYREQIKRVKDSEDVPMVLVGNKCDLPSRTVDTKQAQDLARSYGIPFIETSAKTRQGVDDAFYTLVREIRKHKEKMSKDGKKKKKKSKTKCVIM
Chain of KRAS G12C (P62937 whole entry): as the sequence (P62937 whole entry) above

Structure (SMILES) | IC50 [1, 8] [µM] | IC50 [2, 9] [µM] | IC50 [3, 10] [µM] | IC50 [4, 11] [µM] | other results
CCn1c(-c2cccnc2[C@H](C)OC)c2c3cc(ccc31)-c1cc(O)cc(c1)C[C@H](NS(=O)(=O)CC1CC1)C(=O)N1CCC[C@H](N1)C(=O)OCC(C)(C)C2 (racemic) [Compound A200] | > 10 |  |  |  | 
CCn1c(-c2cccnc2[C@H](C)OC)c2c3cc(ccc31)-c1csc(n1)C[C@H](NC(=O)[C@H](C(C)C)N(C)C(=O)N1C[C@@H]3CCN(C)C[C@@H]31)C(=O)N1CCC[C@H](N1)C(=O)OCC(C)(C)C2 (atropisomer, axis not shown) [Compound A516] |  | 1 to 10 |  |  | 
CO[C@@H](C)c1ncccc1-c1c2c3cc(ccc3n1C)-c1cc(O)cc(c1)C[C@H](NC(=O)[C@H](C(C)C)N(C)C(C)=O)C(=O)N1CCC[C@H](N1)C(=O)OCC(C)(C)C2 (racemic) [Compound A104] |  | 1 to 10 | > 10 |  | 
CCn1c(-c2cccnc2[C@H](C)OC)c2c3cc(ccc31)-c1csc(n1)C[C@H](NC(=O)[C@H](C(C)C)N1CCC3(CN(S(C)(=O)=O)C3)C1=O)C(=O)N1CCC[C@H](N1)C(=O)OCC(C)(C)C2 (racemic) [Compound A234] | > 10 | 1 to 10 | > 10 |  | 
CCn1c(-c2cccnc2[C@H](C)OC)c2c3cc(ccc31)-c1cc(cc(NC(C)=O)c1)C[C@H](NC(=O)[C@H](C(C)C)N(C)C(C)=O)C(=O)N1CCC[C@H](N1)C(=O)OCC(C)(C)C2 (racemic) [Compound A145] |  |  |  |  | IC50 [2]: 1 to 10 µM; IC50 [1]: > 10 µM; IC50 [3]: > 10 µM; IC50 [4]: > 10 µM; IC50 [5]: > 10 µM
CCn1c(-c2cccnc2[C@H](C)OC)c2c3cc(ccc31)-c1cc(O)cc(c1)C[C@H](NS(=O)(=O)c1cn(C)c(C)n1)C(=O)N1CCC[C@H](N1)C(=O)OCC(C)(C)C2 (racemic) [Compound A197] | > 10 |  |  |  | 
CCn1c(-c2cccnc2[C@H](C)OC)c2c3cc(ccc31)-c1csc(n1)C[C@H](NC(=O)OC(C)(C)C)C(=O)N1CCC[C@H](N1)C(=O)OCC(C)(C)C2 |  |  |  |  | ring closure, yield of all isomers [6]: 81%
CCn1c(-c2cccnc2[C@H](C)OC)c2c3cc(ccc31)-c1csc(n1)C[C@H](NC(=O)[C@H](C(C)C)N1CCC3(CN(C(=O)OC)C3)C1=O)C(=O)N1CCC[C@H](N1)C(=O)OCC(C)(C)C2 (racemic) [Compound A235] |  |  |  |  | IC50 [1]: > 10 µM
CCn1c(-c2cccnc2[C@H](C)OC)c2c3cc(ccc31)-c1cc(O)cc(c1)C[C@H](NS(=O)(=O)CC#N)C(=O)N1CCC[C@H](N1)C(=O)OCC(C)(C)C2 (racemic) [Compound A186] |  | > 10 |  | > 10 | IC50 [1]: > 10 µM; IC50 [3]: > 10 µM; IC50 [5, 12]: > 10 µM
CCn1c(-c2cccnc2[C@H](C)OC)c2c3cc(ccc31)-c1cc(cc3nc[nH]c13)C[C@H](NC(=O)[C@H](C(C)C)N(C)C(C)=O)C(=O)N1CCC[C@H](N1)C(=O)OCC(C)(C)C2 (racemic) [Compound A153] | > 10 |  |  |  | 
CCn1c(-c2cccnc2[C@H](C)OC)c2c3cc(ccc31)-c1cc(O)cc(c1)C[C@H](NS(=O)(=O)c1ccc(O)cc1)C(=O)N1CCC[C@H](N1)C(=O)OCC(C)(C)C2 (racemic) [Compound A195] | > 10 |  |  |  | 
CCn1c(-c2cccnc2[C@H](C)OC)c2c3cc(ccc31)-c1cc(O)cc(c1)C[C@H](NC(=O)[C@H](C(C)C)N(C)C(=O)C1(C(=O)O)CC1)C(=O)N1CCC[C@H](N1)C(=O)OCC(C)(C)C2 (racemic) [Compound A150] |  | 1 to 10 | > 10 |  | 
CCn1c(-c2cccnc2[C@H](C)OC)c2c3cc(ccc31)-c1csc(n1)C[C@H](NC(=O)[C@H](C(C)C)N(C)C(=O)N1C[C@H]3CCN(C)C[C@H]31)C(=O)N1CCC[C@H](N1)C(=O)OCC(C)(C)C2 (atropisomer, axis not shown) [Compound A517] |  | 1 to 10 |  |  | 
CCn1c(-c2cccnc2[C@H](C)OC)c2c3cc(ccc31)-c1cc(O)cc(c1)C[C@H](NS(=O)(=O)c1ccc(OC)cc1OC)C(=O)N1CCC[C@H](N1)C(=O)OCC(C)(C)C2 (racemic) [Compound A198] |  |  |  |  | IC50 [1]: > 10 µM
CCn1c(-c2cccnc2[C@H](C)OC)c2c3cc(ccc31)-c1csc(n1)C[C@H](NC(=O)[C@H](C(C)C)N(C)C(=O)N1CCN3C(=O)CN(C)C[C@@H]3C1)C(=O)N1CCC[C@H](N1)C(=O)OCC(C)(C)C2 (atropisomer, axis not shown) [Compound A536] |  |  | 0.01 to 0.1 | 0.01 to 0.1 | IC50 [7]: < 0.01 µM
CCn1c(-c2cccnc2[C@H](C)OC)c2c3cc(ccc31)-c1cc(O)cc(c1)C[C@H](NS(=O)(=O)N1CCC1)C(=O)N1CCC[C@H](N1)C(=O)OCC(C)(C)C2 (racemic) [Compound A189] | > 10 | > 10 | > 10 | > 10 | IC50 [5, 12]: > 10 µM
CCn1c(-c2cc(N3CCN(C)CC3)cnc2[C@H](C)OC)c2c3cc(ccc31)-c1csc(n1)C[C@H](NC(=O)[C@H](C(C)C)N(C)C(=O)N1CC(OC)C1)C(=O)N1CCC[C@H](N1)C(=O)OCC(C)(C)C2 (atropisomer, axis not shown) [Compound A466] |  |  | 0.01 to 0.1 | 0.01 to 0.1 | IC50 [7]: < 0.01 µM
CO[C@@H](C)c1ncccc1-c1c2c3cc(ccc3n1CC(F)(F)F)-c1csc(n1)C[C@H](NC(=O)[C@H](C(C)C)N(C)C(=O)N1CC(N(C)C)C1)C(=O)N1CCC[C@H](N1)C(=O)OCC(C)(C)C2 (atropisomer, axis not shown) [Compound A328] | > 10 | > 10 | > 10 | > 10 | IC50 [5, 12]: > 10 µM
CCn1c(-c2cccnc2[C@H](C)OC)c2c3cc(ccc31)-c1cc(O)cc(c1)C[C@H](NS(=O)(=O)C1CC1)C(=O)N1CCC[C@H](N1)C(=O)OCC(C)(C)C2 (racemic) [Compound A196] | > 10 |  |  |  | 
CCn1c(-c2cccnc2[C@H](C)OC)c2c3cc(ccc31)-c1cc(O)cc(c1)C[C@H](NS(=O)(=O)N1CCOCC1)C(=O)N1CCC[C@H](N1)C(=O)OCC(C)(C)C2 (racemic) [Compound A194] |  |  |  |  | IC50 [1]: > 10 µM
CCn1c(-c2cccnc2[C@H](C)OC)c2c3cc(ccc31)-c1cc(O)cc(c1)C[C@H](NS(=O)(=O)C1CS(=O)(=O)C1)C(=O)N1CCC[C@H](N1)C(=O)OCC(C)(C)C2 (racemic) [Compound A191] | > 10 | > 10 | > 10 | > 10 | IC50 [5, 12]: > 10 µM
CCn1c(-c2cccnc2[C@H](C)OC)c2c3cc(ccc31)-c1csc(n1)C[C@H](NC(=O)[C@H](C(C)C)N(C)C(=O)N1CC(Cc3cnn(C)c3)C1)C(=O)N1CCC[C@H](N1)C(=O)OCC(C)(C)C2 (atropisomer, axis not shown) [Compound A500] |  |  | 0.01 to 0.1 | 0.01 to 0.1 | IC50 [7]: < 0.01 µM
CCn1c(-c2cccnc2[C@H](C)OC)c2c3cc(ccc31)-c1csc(n1)C[C@H](NC(=O)[C@H](C(C)C)N(C)C(=O)N1CCN(C(C)=O)CC1)C(=O)N1CCC[C@H](N1)C(=O)OCC(C)(C)C2 (atropisomer, axis not shown) [Compound A291] |  |  | 0.01 to 0.1 | 0.01 to 0.1 | IC50 [7]: < 0.01 µM
CCn1c(-c2cccnc2[C@H](C)OC)c2c3cc(ccc31)-c1csc(n1)C[C@H](NC(=O)[C@H](C(C)C)N(C)C(=O)[C@H]1CCN(S(C)(=O)=O)C1)C(=O)N1CCC[C@H](N1)C(=O)OCC(C)(C)C2 (racemic) [Compound A237] |  | 1 to 10 |  |  | 
CCn1c(-c2cccnc2[C@H](C)OC)c2c3cc(ccc31)-c1csc(n1)C[C@H](NC(=O)[C@H](C(C)C)N(C)C(=O)N1CCC1)C(=O)N1CCC[C@H](N1)C(=O)OCC(C)(C)C2 (atropisomer, axis not shown) [Compound A399] |  |  | 0.01 to 0.1 | 0.01 to 0.1 | IC50 [7]: < 0.01 µM
CCn1c(-c2cccnc2[C@H](C)OC)c2c3cc(ccc31)-c1cc(cc(S(C)(=O)=O)c1)C[C@H](NC(=O)[C@H](C(C)C)N(C)C(C)=O)C(=O)N1CCC[C@H](N1)C(=O)OCC(C)(C)C2 (racemic) [Compound A154] | > 10 | > 10 | > 10 | > 10 | IC50 [5, 12]: > 10 µM
